In patent publication US7601737B2, “Isotopically substituted proton pump inhibitors” (priority 2005, dated 2009):
Like-named read-outs stand apart in the source and are kept apart here.

Key:
[1] = Metabolisation in liver microsomes (rat); type: in vitro ADME; conditions: for Percent of compound metabolized: 10 μM, 90 minutes incubation; for Ratio of percent metabolized, Example/Pantoprazole: 90 minutes
Experimental: (§1) Pantoprazole or examples 1 or 2 (10 μM each) were incubated with liver microsomes (source: all from GenTest except Mini Pig from TEBU),incubation in 1 mg/ml protein, 100 mM Tris-HCl, pH 7.4, 1 mM NADPH2). Reaction was terminated after 90 minutes by liquid nitrogen, the parent compound was detected by HPLC (10 mM KH2PO4, pH 7.4, acetonitril gradient 20-44%).

[2] = Metabolisation in liver microsomes (mini pig); type: in vitro ADME; conditions: for Percent of compound metabolized: 10 μM, 90 minutes incubation; for Ratio of percent metabolized, Example/Pantoprazole: 90 minutes
Experimental: as §1

[3] = Metabolisation in liver microsomes (dog); type: in vitro ADME; conditions: for Percent of compound metabolized: 10 μM, 90 minutes incubation; for Ratio of percent metabolized, Example/Pantoprazole: 90 minutes
Experimental: as §1

[4] = Metabolisation in liver microsomes (human); type: in vitro ADME; conditions: for Percent of compound metabolized: 10 μM, 90 minutes incubation; for Ratio of percent metabolized, Example/Pantoprazole: 90 minutes
Experimental: as §1

[5] = Metabolisation in liver microsomes (guinea pig); type: in vitro ADME; conditions: Guinee pig liver microsomes; for Percent of compound metabolized: 10 μM, 90 minutes incubation; for Ratio of percent metabolized, Example/Pantoprazole: 90 minutes
Experimental: as §1

[6] = Metabolisation in liver microsomes (monkey); type: in vitro ADME; conditions: for Percent of compound metabolized: 10 μM, 90 minutes incubation; for Ratio of percent metabolized, Example/Pantoprazole: 90 minutes
Experimental: as §1

[7] = Metabolisation in liver microsomes (mouse); type: in vitro ADME; conditions: for Percent of compound metabolized: 10 μM, 90 minutes incubation; for Ratio of percent metabolized, Example/Pantoprazole: 90 minutes
Experimental: as §1

[8] = system: human cryopreserved hepatocytes
Experimental: (§3) Following the evaluation of the metabolic clearance of the compounds according to the invention via P450 enzymes, the formation kinetics of the main metabolite identified in humans, i.e. M2 (5-(difluoromethoxy)-2-[[(3-methoxy-4-sulfate-2-pyridyl)-methyl]sulfinyl]-1H-benzimidazole) was determined. Because the generation of M2 involves the oxidation of the 4-methoxy-pyridyl group by CYP2C19 and subsequent conjugation with 3′-phosphoadenosine-5′-phosphosulfate (PAPS) by an unidentified sulphotransferase, human cryopreserved hepatocytes were used since both phase I and phase II enzymes are functional in this in vitro system.
(§4) M2 formation rate under these conditions was linear up to 60 min. The M2 formation rate was determined at nine different compound concentrations (0, 0.5, 1.0, 2.5, 5.0, 10.0, 25.0, 50.0 and 100 μMol/L) incubated in duplicate for 60 min at 37° C. M2 was quantified using LC-MS/MS. M2 isolated from human urine was used as an external standard. The concentration to reach the half-maximal formation rate (KM-value) and the maximal formation rate (Vmax) were obtained by non-linear regression analysis using the Michaelis-Menten equation. The intrinsic clearance (Clint) was obtained dividing Vmax over KM.

[9] = in vitro; conditions: human, hepatocytes
Experimental: as §3, §4

[10] = system: human cryopreserved hepatocytes; assay: in vitro; conditions: for % Σ Clint rac. Omeprazole: hepatocytes
From the text: (§2) 5-hydroxy-omeprazole was quantified using LC-MS/MS.

[11] = in vitro; conditions: human, hepatocytes; remark: listed apart in the source
From the text: as §2

[12] = Table 2, relative to rac. pantoprazole
[13] = Table 3, pooled human hepatocytes, M2 formation, Vmax over KM
[14] = Table 3, relative to rac. pantoprazole

## [2H]C([2H])([2H])Oc1ccnc(C[S+]([O-])c2nc3cc(OC(F)F)ccc3[nH]2)c1OC (racemic) [Example 1, (R/S)-5-Difluoromethoxy-2-[(3-methoxy-4-trideuteriomethoxy-2-pyridinyl)methylsulfinyl]-1H-benzimidazole]
[1]
  Percent of compound metabolized: 35%
  Ratio of percent metabolized, Example/Pantoprazole: 0.57
[2]
  Percent of compound metabolized: 19%
  Ratio of percent metabolized, Example/Pantoprazole: 0.73
[3]
  Percent of compound metabolized: 12%
  Ratio of percent metabolized, Example/Pantoprazole: 0.60
[4]
  Percent of compound metabolized: 14%
  Ratio of percent metabolized, Example/Pantoprazole: 0.50
[5]
  Percent of compound metabolized: 59%
  Ratio of percent metabolized, Example/Pantoprazole: 0.75
[6]
  Percent of compound metabolized: 47%
  Ratio of percent metabolized, Example/Pantoprazole: 0.64
[7]
  Percent of compound metabolized: 36%
  Ratio of percent metabolized, Example/Pantoprazole: 0.58

## [2H]C([2H])([2H])Oc1c(OC)ccnc1C[S+]([O-])c1nc2cc(OC(F)F)ccc2[nH]1 (racemic) [Example 22, rac-5-Difluoromethoxy-2-[(4-methoxy-3-trideuteriomethoxy-2-pyridinyl)methylsulfinyl]-1H-benzimidazole]
[8]; human, 60 min
  Substrate concentrations at which formation of M2 appeared to be inhibited: above 100 μM
[8]; human, hepatocytes
  % Σ Clint rac. Pantoprazole: 79%
  % Σ Clint rac. pantoprazole: 79%
  Intrinsic clearance (Clint): 22.0 μl/min/10^6 cells
[9]
  hepatocyte CLint: 22 µL/min/1e6 cells

## O.[2H]C([2H])Oc1ccnc(C[S+]([O-])c2nc3cc(OC(F)F)ccc3[nH]2)c1OC.[Na] (racemic) [Example 24, rac-5-Difluoromethoxy-2-[(3-methoxy-4-dideuteriomethoxy-2-pyridinyl)methylsulfinyl]-1H-benzimidazole sodium salt mono hydrate]
[8]; [12]
  % Σ Clint rac. pantoprazole: 48%
[8]; [13]
  Intrinsic clearance (Clint): 13.5 μl/min/10^6 cells
[8]; [14]
  % Σ Clint rac. Pantoprazole: 48%
[9]
  hepatocyte CLint: 13.5 µL/min/1e6 cells

## O.[2H]COc1ccnc(C[S+]([O-])c2nc3cc(OC(F)F)ccc3[nH]2)c1OC.[Na] (racemic) [Example 25, rac-5-Difluoromethoxy-2-[(3-methoxy-4-monodeuteriomethoxy-2-pyridinyl)methylsulfinyl]-1H-benzimidazole sodium salt mono hydrate]
[8]; [12]
  % Σ Clint rac. pantoprazole: 63%
[8]; [13]
  Intrinsic clearance (Clint): 17.7 μl/min/10^6 cells
[8]; [14]
  % Σ Clint rac. Pantoprazole: 63%
[9]
  hepatocyte CLint: 17.7 µL/min/1e6 cells

## O.[2H]C([2H])([2H])Oc1ccnc(C[S+]([O-])c2nc3cc(OC(F)F)ccc3[nH]2)c1OC.[Na] (racemic) [Example 32, rac-5-Difluoromethoxy-2-[(3-methoxy-4-trideuteriomethoxy-2-pyridinyl)methylsulfinyl]-1H-benzimidazole sodium salt mono hydrate]
[8]; [14]
  % Σ Clint rac. Pantoprazole: 18%
[9]
  hepatocyte CLint: 5.1 µL/min/1e6 cells

## [2H]C([2H])([2H])Oc1ccc2[nH]c([S+]([O-])Cc3ncc(C)c(OC)c3C)nc2c1 (racemic) [Example 46, rac-5-Trideuteriomethoxy-2-[(4-methoxy-3,5-dimethyl-2-pyridinyl)methylsulfinyl]-1H-benzimidazole]
[10]
  Reduction in the 5-hydroxy-omeprazole formation rate: not found
[10]; human
  % Σ Clint rac. Omeprazole: 107%
[11]
  hepatocyte CLint: 2.1 µL/min/1e6 cells

## [2H]C([2H])([2H])Oc1ccc2[nH]c([S+]([O-])Cc3ncc(C)c(OC([2H])([2H])[2H])c3C)nc2c1 (racemic) [Example 47, rac-5-Trideuteriomethoxy-2-[(3,5-dimethyl-4-trideuteriomethoxy-2-pyridinyl)methylsulfinyl]-1H-benzimidazole]
[10]; human, 60 min
  5-hydroxy-omeprazole formation rate, reduction compared to non-deuterated omeprazole: about 1.5 fold
[10]; human
  % Σ Clint rac. Omeprazole: 69%
[11]
  hepatocyte CLint: 1.4 µL/min/1e6 cells

## [2H]C([2H])([2H])Oc1c(C)cnc(C[S+]([O-])c2nc3cc(OC)ccc3[nH]2)c1C (racemic) [Example 48, rac-5-Methoxy-2-[(3,5-dimethyl-4-trideuteriomethoxy-2-pyridinyl)methylsulfinyl]-1H-benzimidazole]
[10]; human, 60 min
  5-hydroxy-omeprazole formation rate, reduction compared to non-deuterated omeprazole: about 1.5 fold
  Reduction in the 5-hydroxy-omeprazole formation rate: Reduction in the 5-hydroxy-omeprazole formation rate was observed
[10]; human
  % Σ Clint rac. Omeprazole: 69%
[11]
  hepatocyte CLint: 1.4 µL/min/1e6 cells

## COc1ccnc(C[S+]([O-])c2nc3ccc(OC(F)F)cc3[nH]2)c1OC (racemic) [rac. pantoprazole Na 1.5 H2O, 5-difluoromethoxy-2-[(3,4-dimethoxy-2-pyridinyl)methylsulphinyl]-1H-benzimidazole, reference compound]
[8]; human, hepatocytes
  % Σ Clint rac. Pantoprazole: 100%
  % Σ Clint rac. pantoprazole: 100%
  Intrinsic clearance (Clint): 27.9 μl/min/10^6 cells
[9]
  hepatocyte CLint: 27.9 µL/min/1e6 cells

## COc1ccnc(C[S@@+]([O-])c2nc3cc(OC(F)F)ccc3[n-]2)c1OC.COc1ccnc(C[S@@+]([O-])c2nc3cc(OC(F)F)ccc3[n-]2)c1OC.O.O.O.[Na+].[Na+] [(R)-pantoprazole Na 1.5 H2O, reference compound]
[8]; human, hepatocytes
  % Σ Clint (R)-pantoprazole: 100%
  Intrinsic clearance (Clint): 25.7 μl/min/10^6 cells

## COc1ccc2nc([S@@+]([O-])Cc3ncc(C)c(OC)c3C)[nH]c2c1 [(S)-omeprazole sodium, (S)-5-methoxy-2-[(4-methoxy-3,5-dimethyl-2-pyridinyl)methylsulphinyl]-1H-benzimidazole, reference compound]
[10]; human
  % Σ Clint rac. Omeprazole: 37%
[11]
  hepatocyte CLint: 0.7 µL/min/1e6 cells

## COc1ccnc(C[S@+]([O-])c2nc3cc(OC(F)F)ccc3[n-]2)c1OC.COc1ccnc(C[S@+]([O-])c2nc3cc(OC(F)F)ccc3[n-]2)c1OC.O.O.O.[Na+].[Na+] [(S)-pantoprazole Na 1.5 H2O, reference compound]
[8]; human, hepatocytes
  % Σ Clint (S)-pantoprazole: 100%
  Intrinsic clearance (Clint): 16.1 μl/min/10^6 cells

## [2H]C([2H])([2H])Oc1ccnc(C[S@+]([O-])c2nc3cc(OC(F)F)ccc3[nH]2)c1OC [Example 2, (S)(−)-5-Difluoromethoxy-2-[(3-methoxy-4-trideuteriomethoxy-2-pyridinyl)methylsulfinyl]-1H-benzimidazole]
[1]
  Percent of compound metabolized: 17%
  Ratio of percent metabolized, Example/Pantoprazole: 0.28
[2]
  Percent of compound metabolized: 19%
  Ratio of percent metabolized, Example/Pantoprazole: 0.73
[3]
  Percent of compound metabolized: 10%
  Ratio of percent metabolized, Example/Pantoprazole: 0.50
[4]
  Percent of compound metabolized: 15%
  Ratio of percent metabolized, Example/Pantoprazole: 0.54
[5]
  Percent of compound metabolized: 54%
  Ratio of percent metabolized, Example/Pantoprazole: 0.69
[6]
  Percent of compound metabolized: 35%
  Ratio of percent metabolized, Example/Pantoprazole: 0.48
[7]
  Percent of compound metabolized: 17%
  Ratio of percent metabolized, Example/Pantoprazole: 0.27

## [2H]C([2H])([2H])Oc1ccnc(C[S@+]([O-])c2nc3cc(OC(F)F)ccc3[nH]2)c1OC [Example 5, Sodium (S)-{[5-(difluoromethoxy)]-2-[(3-methoxy-4-trideuteriomethoxy-2-pyridinyl)methylsulphinyl]-1H-benzimidazolide} hydrate]
[8]; Table 2, relative to (S)-pantoprazole
  % Σ Clint (S)-pantoprazole: 21%

## O.O.O.[2H]C([2H])([2H])Oc1ccnc(C[S@@+]([O-])c2nc3cc(OC(F)F)ccc3[nH]2)c1OC.[Na] [Example 30, (R)-5-Difluoromethoxy-2-[(3-methoxy-4-trideuteriomethoxy-2-pyridinyl)methylsulfinyl]-1H-benzimidazole sodium salt trihydrate]
[8]; Table 2, relative to (R)-pantoprazole
  % Σ Clint (R)-pantoprazole: 21%

## [2H]C([2H])([2H])Oc1ccnc(C[S@+]([O-])c2nc3cc(OC(F)F)ccc3[nH]2)c1OC.[Na] [Example 36, (S)-5-Difluoromethoxy-2-[(3-methoxy-4-trideuteriomethoxy-2-pyridinyl)methylsulfinyl]-1H-benzimidazole sodium salt]
[8]; Table 3, relative to (S)-pantoprazole
  % Σ Clint (S)-pantoprazole: 21%
[9]
  hepatocyte CLint: 3.4 µL/min/1e6 cells

## [2H]C([2H])([2H])Oc1ccnc(C[S@@+]([O-])c2nc3cc(OC(F)F)ccc3[nH]2)c1OC.[Na] [Example 37, (R)-5-Difluoromethoxy-2-[(3-methoxy-4-trideuteriomethoxy-2-pyridinyl)methylsulfinyl]-1H-benzimidazole sodium salt]
[8]; Table 3, relative to (R)-pantoprazole
  % Σ Clint (R)-pantoprazole: 21%
[9]
  hepatocyte CLint: 5.5 µL/min/1e6 cells

## [2H]C([2H])([2H])Oc1ccc2[nH]c([S@@+]([O-])Cc3ncc(C)c(OC([2H])([2H])[2H])c3C)nc2c1.[Na] [Example 49, (S)-5-Trideuteriomethoxy-2-[(3,5-dimethyl-4-trideuteriomethoxy-2-pyridinyl)methylsulfinyl]-1H-benzimidazole sodium salt]
[10]
  Change of intrinsic clearance (Clint) of 5-hydroxy-omeprazole: did not alter the intrinsic clearance
[10]; human
  % Σ Clint rac. Omeprazole: 40%
[11]
  hepatocyte CLint: 0.8 µL/min/1e6 cells

## Sodium (R/S)-{[5-(difluoromethoxy)]-2-[(3-methoxy-4-trideuteriomethoxy-2-pyridinyl)methylsulphinyl]-1H-benzimidazolide} hydrate [Example 6]
[8]; Table 2, pooled human hepatocytes, M2 formation, Vmax over KM
  Intrinsic clearance (Clint): 5.1 μl/min/10^6 cells
[8]; [12]
  % Σ Clint rac. pantoprazole: 20%
[8]; series [1H], [2H1], [2H2], [2H3]
  Effect of increasing number of [2H] atoms in the 4-methoxy-pyridyl position on M2 formation rates: decreased M2 formation rates
